Experimental data published in patent US9895370B2, “Pharmaceutical composition for preventing or treating of cirrhosis of liver comprising G protein coupled receptor 119 ligand as an active ingredient” (DONGGUK UNIVERSITY INDUSTRY—ACADEMIC COOPERATION FOUNDATION, priority 2015, dated 2018).

Key:
[1] = test system: C57BL/6 mice with liver fibrosis induced by carbon tetrachloride; assay: carbon tetrachloride (CCl4)-induced liver fibrosis animal model; assay type: in vivo, mouse; details: for ALT / AST / D-BIL / T-BIL: blood
Experimental: 6-week-old male C57BL/6J mice (Joongang laboratory animal, Seoul) were acclimated in a laboratory environment for 1 week with solid feed, and randomly arranged in control groups and experimental groups according to randomized block design. Then, carbon tetrachloride (1 ml/kg) was administered to 6-week-old male C57BL/6 mice (Joongang laboratory animal, Seoul) twice a week for three weeks to induce liver fibrosis, and a GPR119 ligand (10 mg/kg) suspended in 40% PEG400 was orally administered thereto once a day for five days per week. For liver fibrosis models induced by dimethylnitrosamine (DMN), DMN (10 mg/kg) was administered to mice three times a week to induce liver fibrosis. As the control group, a vehicle-treated group was used. After termination of the experiment, the laboratory animals were fasted for 12 hours or more, and anesthetized with Zoletil to obtain blood and the liver, and the liver was washed with 0.1 M phosphate buffered saline (PBS; pH 7.4) and weighed. The blood obtained from the abdominal aorta was centrifuged in an SST tube at 3000×RPM for 20 minutes to isolate the serum.
For the above-mentioned laboratory animals, serum alanine transaminase (ALT), aspartate transaminase (AST), total bilirubin (T-BIL) and direct bilirubin (D-BIL) were analyzed using an automated hematology analyzer, Spectrum [(Abbott Laboratories, Abbott Park, Ill.)].
The liver samples obtained as described above were prepared into sections, and the tissue section was fixed with 10% buffered neutral formalin and embedded in paraffin. Afterward, the resulting section was sliced to a 4-μm thickness, and put on a slide to fix a specimen, stained with sirius red, and observed using an optical microscope.
A predetermined amount of liver tissue was homogenized in a mortar with liquid nitrogen and a lysis buffer, and the resulting tissue solution was transferred into a new tube and then vortexed. The tissue solution was centrifuged at 14,000 rpm and 4° C. for 20 minutes, and the intermediate layer was extracted to quantify a protein by a Bradford method. 30 μg of proteins were analyzed by electrophoresis using an SDS polyacrylamide gel, and the change of protein expression was analyzed by western blot.
To examine improvement of liver fibrosis by the GPR119 ligand, in an animal model having liver fibrosis induced by carbon tetrachloride (CCl4), an effect of the GPR119 ligand on inhibiting liver fibrosis was observed.
First, 1 ml/kg of carbon tetrachloride was intraperitoneally administered twice a week, and also orally administered with the GPR119 ligand (MBX-2982) at doses of 20 and 40 mg/kg, respectively, once a day for 5 days a week. Three weeks later, liver tissue was extracted, subjected to sirius red staining for confirming collagen production and immunohistochemical staining for confirming expression of a HSC activation marker, that is, α-SMA, and then compared with a control group and a carbon tetrachloride only-treated group.

human HSC line LX-2 = assay: TGFβ1-inducible collagen I and TGFβ expression in LX-2; assay type: cell-based
Experimental: (§1) A human HSC line (LX-2, Milipore, U.S.A.) was plated in a 6-well plate, and grown to confluency in DMEM supplemented with 1% penicillin-streptomycin (Hyclone, U.S.A.) and 2% fetal bovine serum (Hyclone, U.S.A.) at 37° C. in a 5% CO2 incubator. For a further experiment, the confluent HSC line was incubated in an FBS-free medium, instead of the 2% FBS-added medium.
Total RNA ([…]) extracted from cells using Trizol and a Maxime RT PreMix Kit (iNtRON Biotechnology, Gyeonggi-do, Korea) was used to obtain cDNA. For RT-PCR, a target gene was amplified by PCR using a Maxime™ PCR PreMix Kit according to the manufacturer's instructions, and subjected to electrophoresis in a 2% agrose gel, thereby identifying the amplified PCR product.
Meanwhile, for real-time RT-qPCR, the synthesized cDNA was assessed in a CFX Connect™ Real-Time PCR Detection System (Bio-Rad Laboratories, CA, USA) instrument using a SYBR green dye (Bio-Rad). The CP value of the gene was calibrated with the CP value of S 18r gene. Also, through a melting curve analysis, specificity of the amplified PCR product was confirmed.
Sodium dodecylsulfate-polyacrylamide gel electrophoresis (SDS-PAGE) was performed using a gel electrophoresis device (Mighty Small SE 250, Hoefer Scientific Instruments, San Francisco) according to the method established by the inventors. A lysed cell fraction was diluted with a sample dilution buffer [63 mM Tris (pH. 6.8), 10% glycerol, 2% SDS, 0.0013% bromophenol blue, 5% β-mercaptoethanol], and subjected to electrophoresis in an electrode buffer (15 g Tris, 72 g glycerin and 5 g SDS contained in an 1 L solution) using a 8-12% gel. After electrophoresis, the gel was transferred to a nitrocellulose membrane to transfer proteins using an electrophoresis device for transfer in a transfer buffer (25 mM Tris, 192 mM glycerin, 20% v/v methanol (pH. 8.3)] at 40 mA for 3 hours. The nitrocellulose membrane was reacted with first antibodies, reacted with horseradish peroxidase-conjugated goat anti-rabbit IgG and horseradish peroxidase-conjugated goat anti-mouse IgG as secondary antibodies for 1 hour, and visualized using an ECL chemiluminescence system (Amersham, Gaithesberg, Mass.).
A critical cytokine having an influence on the induction of liver fibrosis, TGFβ1, is a potent fibrosis stimulation factor for HSCs. To examine the expression of a liver fibrosis-inducing factor which was increased when the human liver cell line LX-2, cultured by method D was treated with TGFβ1, changes in expression according to the treatment with GPR119 ligands (MBX-2982, GSK1292263) were assessed by the methods described in G and H, thereby observing the effect of the GPR119 ligands.

[2] = test system: peptidyl prolyl isomerase (Pin1); assay: Pin1 expression in LX-2; assay type: cell-based, human; details: FIG. 5b
Experimental: as §1
According to existing reports, as a core factor participating in cell proliferation by PDGF, peptidyl prolyl isomerase (Pin1) is known. Therefore, Pin1 relevance with respect to the GPR119 ligand action was evaluated.

mouse HSCs = assay: col1A1 mRNA expression in primary cultured mouse HSCs during in vitro culture-induced activation; assay type: cell-based; details: treated on day 1, 3 and 5, FIG. 2a
Experimental: HSCs were isolated from a male C57BL/6 mouse, a male GPR119 WT mouse and a GPR119 KO mouse. More specifically, each mouse was anesthetized to perform an abdominal incision, a cannula was inserted into the hepatic portal vein to introduce a gas mixture of 5% CO2 and 95% 02, and then Ca^2+, Mg^2+-free Hank's balanced salt solution was injected into the cannula at 37° C. to remove blood in the liver. Afterward, a 0.1% collagenase type IV (Sigma, U.S.A.) solution was injected. The liver tissue was detached from the body and prepared in a liver cell suspension, and following centrifugation at 1000×g for 10 minutes, a precipitated cell layer was obtained by floating HSCs to isolate through a density gradient method using Nycodenz. The isolated HSCs were cultured in high glucose Dulbecco's Modified Eagle's Medium (DMEM) containing 10% fetal bovine serum, 50 U/ml penicillin and […] streptomycin at 37° C. in 5% CO2.
Total RNA ([…]) extracted from cells using Trizol and a Maxime RT PreMix Kit (iNtRON Biotechnology, Gyeonggi-do, Korea) was used to obtain cDNA. […]
Meanwhile, for real-time RT-qPCR, the synthesized cDNA was assessed in a CFX Connect™ Real-Time PCR Detection System (Bio-Rad Laboratories, CA, USA) instrument using a SYBR green dye (Bio-Rad). […]

[3] = 40 mg/kg, western blot, FIG. 3c
[4] = LX-2 treated with TGFβ1, FIGS. 2c, 2d

With `CCc1cnc(N2CCC(c3nc(COc4ccc(-n5cnnn5)cc4)cs3)CC2)nc1` [MBX-2982, 4-((4-(1H-tetrazol-1-yl)phenoxy)methyl)-2-(1-(5-ethylpyrimidin-2-yl)piperidin-4-yl)thiazole] the amount of hydroxyproline ([1]; 40 mg/kg oral, FIG. 3b) was “statistically significantly reduced”, the “expression of TGFβ protein in liver tissue” value [1, 3] was “statistically significantly inhibited” and the “expression of collagen I protein in liver tissue” value [1, 3] was “statistically significantly inhibited”. The “expression of α-SMA protein in liver tissue” value [1, 3] was “statistically significantly inhibited”, the ALT ([1]; CCl4 + MBX 20 (20 mg/kg oral)) was 38.55 U/L and the AST ([1]; CCl4 + MBX 20 (20 mg/kg oral)) was 94.06 U/L. It also gave a D-BIL ([1]; CCl4 + MBX 20 (20 mg/kg oral)) of 0.11 mg/dL, a T-BIL ([1]; CCl4 + MBX 20 (20 mg/kg oral)) of 0.20 mg/dL and an ALT ([1]; CCl4 + MBX 40 (40 mg/kg oral)) of 32.06 U/L. It also gave an AST ([1]; CCl4 + MBX 40 (40 mg/kg oral)) of 68.11 U/L, a D-BIL ([1]; CCl4 + MBX 40 (40 mg/kg oral)) of 0.12 mg/dL and a T-BIL ([1]; CCl4 + MBX 40 (40 mg/kg oral)) of 0.23 mg/dL. For the same molecule, the “expression of TGFβ1-inducible liver fibrosis inducing factors (collagen I, TGFβ) with compound C / DN-AMPK” value (human HSC line LX-2; AMPK inhibitor compound C treated, DN-AMPK transduced, FIG. 4c) was “inhibitory effect”, the “inhibitory effect on collagen I and TGFβ expression under overexpression of Pin1” value (human HSC line LX-2; LX-2 transduced with Pin1 adenovirus, TGFβ1, FIG. 5c) was “reversed” and the “expression of TGFβ1-inducible TGFβ” value (human HSC line LX-2; [4]) was “inhibited”. The “expression of TGFβ1-inducible collagen I” value (human HSC line LX-2; [4]) was “inhibited”, the Pin1 expression [2] was “time-dependently reduced” and the “mRNA expression of collagen col1A1” value (mouse HSCs) was “considerably inhibited”.
